One assay has as its system IL-2. In words: IL-2 mRNA expression in Jurkat cells by qRT-PCR, normalized with GAPDH. In kind it is cell-based, human. The procedure:
(§1) FIG. 1. Interferon gamma (IFN-γ) and interleukin (IL)-2 expression in human Jurkat cells following exposure to TRIP in vitro. Jurkat cells (2×10^6) were treated with different concentrations of TRIP as indicated for 24 hours. (A) IFN-γ and (B) IL-2 mRNA expression levels were detected by quantitative real-time polymerase chain reaction (qRT-PCR) and normalized with the expression of GAPDH. *p<0.05, **p<0.01, ***p<0.001.
(§2) FIG. 3. Effects of TRIP alone and in combination with trifluoperazine (TFP) or LY294002 (LY) on IFN-γ and IL-2 in human Jurkat cells in vitro. Jurkat cells (2×10^6) were pretreated with different concentrations of (A, B) TFP (0, 0.1, 1.0, 5.0, and 10.0 μM) and (C, D) LY294002 (0, 1, 5, 10, and 25 μM) for 1 hour, then incubated with medium containing 2.5 μM of TRIP for 24 hours. (A, C) IFN-γ and (B, D) IL-2 mRNA expression levels were detected by qRT-PCR and normalized with the expression of GAPDH. *p<0.05, **p<0.01, ***p<0.001.
(§3) FIG. 4. Effects of calmodulin, PI3K and MAPK inhibition on TRIP-induced expression of IFN-γ and IL-2 in human Jurkat cells in vitro. Jurkat cells (2×10^6) were pretreated with PD98059 (50 μM), TFP (10 μM) and LY294002 (25 μM) for 1 hour, then incubated with medium containing 2.5 μM of TRIP for 24 hours. (A) IFN-γ and (B) IL-2 mRNA expression levels were detected by qRT-PCR and normalized with the expression of GAPDH. **p<0.01, ***p<0.001, ****p<0.0001.
(§4) The potential immune regulating effects of TRIP and the possible mechanism(s) involved were determined with in vitro experiments examining the expression of T cell activating cytokines in human acute T cell leukemia Jurkat cells. The expression of IFN-γ and IL-2 RNA following exposure to increasing concentrations of TRIP (i.e., ospemifene) were first examined, followed by the effects of combining tamoxifen with TRIP on the expression of these cytokines. Different inhibitors of key T cell activation pathways—trifluoperazine (TFP), an inhibitor of calmodulin, LY294002, an inhibitor of PI3K, and PD98059, a MAPK inhibitor—in combination with TRIP were assessed for their effects on TRIP-induced expression of IFN-γ and IL-2 in Jurkat cells.
(§5) Jurkat cells (2.0×10^6) were treated with different concentrations of TRIP as indicated on the x-axis for 24 hours. (A) IFN-γ and (B) IL-2 mRNA expression levels were detected by quantitative real-time polymerase chain reaction (qRT-PCR) and normalized with the expression of GAPDH. *p<0.05, **p<0.01, ***p<0.001.
(§6) T cell activation requires multiple signals including PI3K, MAPK and calcium signaling pathways, and in order to identify the potential mechanism through which TRIP affects immune activation, Jurkat cells (2.0×10^6) were pretreated with different concentrations of TFP (0, 0.1, 1.0, 5.0 and 10.0 μM) (A, B) or LY294002 (0, 1, 5, 10 and 25 μM) (C, D) for one hour, then incubated with medium containing 2.5 μM TRIP for 24 hours. IFN-γ and IL-2 expression levels were detected by qRT-PCR and normalized with the expression of GAPDH. *p<0.05, **p<0.01, ***p<0.001.
(§7) Jurkat cells (2×10^6) were pretreated with PD98059 (50 μM), TFP (10 μM) or LY294002 (25 μM) for one hour, then incubated with medium containing 2.5 μM TRIP for 24 hours. (A) IFN-γ and (B) IL-2 mRNA expression levels were detected by qRT-PCR and normalized with expression of GAPDH. **p<0.01, ***p<0.001, ****p<0.0001.
The effects on T cell activation of different functional group substitutions on the TRIP chemical structure (Formula Ia) were examined by measuring the expression of IFN-γ and IL-2 RNA in human acute T cell leukemia Jurkat cells in vitro.
A strong increase is defined as a ≥50% increase compared to the control. A moderate increase is defined as a 25-49% increase compared to the control. A weak increase is defined as a 0-24% increase compared to the control. No effect is when there was no increase compared to the control.
On the technique in general: In qPCR the cycle at which signal appears reflects the starting amount.

Assay [1] deals with IFN-γ. Kind of assay: IFN-γ mRNA expression in Jurkat cells by qRT-PCR, normalized with GAPDH. The class given is cell-based, human. How it is done: as §1
FIG. 2. Effect of tamoxifen on TRIP-induced expression of IFN-γ in vitro. Jurkat cells (2×10^6) were treated with TRIP (2.5 μM) and/or tamoxifen (2.5 μM) for 24 hours. The expression levels of IFN-γ were analyzed by qRT-PCR and normalized with GAPDH. **p<0.01, ***p<0.005.
as §2, §3, §4, §5
The expression levels of IFN-γ were analyzed by qRT-PCR and normalized with GAPDH. **p<0.01, ***p<0.001.
as §6, §7
The effects on T cell activation of different functional group substitutions on the TRIP chemical structure (Formula Ia) were examined by measuring the expression of IFN-γ and IL-2 RNA in human acute T cell leukemia Jurkat cells in vitro. […]

The subject of assay [2] is T-cell surface markers (CD4, CD8, PD-1, CD28). Kind of assay: Experiment 5: T-cell surface markers of spleen lymphocytes by flow cytometry. The class given is in vivo, human MUC1.Tg C57BL/6 mice. How it is done: FIG. 11. Lymphocyte phenotypes following different hormonal treatments. (A) CD3+CD4+; (B) CD3+CD8+; (C) CD3+CD28+; (D) CD8+CD28+; (E) CD3+PD-1+; and (F) CD8+PD-1+; T cell surface markers were stained with indicated antibodies after […] of TRIP (100 mg/kg), estradiol (E2; 25 μg/kg), and letrozole (0.8 mg/kg) treatments (n=8 all groups).
(§8) A total of 32 female human MUC1.Tg C57BL/6 mice, starting at approximately six weeks of age, were treated with urethane as described (Wurz G T. et al., J. Transl. Med., 11:64 (2013)). Two weeks following the final dose of urethane (Week 17), the mice were randomized into four treatment groups of approximately equal average weight (n=8, all groups): Control (no treatment); TRIP (i.e., ospemifene) 100 mg/kg; estradiol 25 μg/kg; and letrozole 0.8 mg/kg. TRIP and letrozole were prepared in DMSO and peanut oil as described above in Experiment 2 and administered daily for 14 days by oral gavage (100 μL). Estradiol was dissolved in 100% ethanol, diluted in PBS to achieve the desired concentration, and then administered daily for 14 days by s.c. injection at rotating sites using a 25-gauge needle. In Week 19, the study was terminated, 24 hours after the last treatments, and serum and spleens were collected for surface marker and Treg analyses.
(§9) After two weeks of treatment, lymphocytes were isolated from spleen. T-cell surface markers (CD4, CD8, PD-1, CD28) and regulatory T cells (Tregs) were analyzed by flow cytometry.
A general note: In flow cytometry, cells or beads pass a laser one at a time.

Assay [3] concerns regulatory T cells (Tregs). Kind of assay: Experiment 5: regulatory T cells (FoxP3+/CD4+) by flow cytometry. The class given is in vivo, human MUC1.Tg C57BL/6 mice. The following applies: TRIP 100 mg/kg or letrozole 0.8 mg/kg daily oral 14 days. The procedure: as §8, §9
Assay [4] deals with IFN-γ. Kind of assay: Experiment 5: serum IFN-γ cytokine analysis. In kind it is in vivo, human MUC1.Tg C57BL/6 mice. The following applies: TRIP 100 mg/kg or letrozole 0.8 mg/kg daily oral 14 days. How it is done:
FIG. 13. Effects of TRIP on serum IFN-γ compared to estradiol and letrozole. Serum IFN-γ from untreated control, TRIP (100 mg/kg), estradiol (E2; 25 μg/kg), and letrozole (0.8 mg/kg) groups were analyzed following daily treatment for 14 days (n=8 all groups). **p<0.01, ***p<0.001.
TRIP and letrozole were prepared in DMSO and peanut oil as described above in Experiment 2 and administered daily for 14 days by oral gavage (100 μL). Estradiol was dissolved in 100% ethanol, diluted in PBS to achieve the desired concentration, and then administered daily for 14 days by s.c. injection at rotating sites using a 25-gauge needle. In Week 19, the study was terminated, 24 hours after the last treatments, and serum and spleens were collected for surface marker and Treg analyses.

[5] abbreviates: Jurkat cells pretreated 1 hour with PD98059 50 μM, TFP 10 μM or LY294002 25 μM, then 2.5 μM TRIP 24 hours (FIG. 4).
The mark [6] stands for this setting: Jurkat cells pretreated 1 hour with TFP 0.1-10.0 μM or LY294002 1-25 μM, then 2.5 μM TRIP 24 hours (FIG. 3).
Setting [7] is: mRNA in Jurkat cells in vitro, relative to control sample without TRIP compound.

Each structure is given as a SMILES string.

`COc1cccc(-c2cc(=O)c3ccccc3o2)c1N` [PD98059, reference compound]: in the assay with IL-2 (setting [5]), the “TRIP-induced expression of IL-2” value is recorded as “did not appear to affect”. In the assay on IFN-γ [1] (setting [5]), the “TRIP-induced expression of IFN-γ” value was “did not appear to affect”.
As for `CN1CCN(CCCN2c3ccccc3Sc3ccc(C(F)(F)F)cc32)CC1` [TFP, trifluoperazine, reference compound], the “TRIP-induced expression of IL-2” value with IL-2 (setting [5]) and with IL-2 (setting [6]) was “significantly decreased” throughout. Moreover, the “TRIP-induced expression of IFN-γ” value in the assay with IFN-γ [1] (setting [5]) and in the assay on IFN-γ [1] (setting [6]) was “significantly decreased” throughout.
Consider `OCCOCCOc1ccc(/C(=C(/CCCl)c2ccccc2)c2ccccc2)cc1` [Z-2-{2-[4-(4-chloro-1,2-diphenyl-but-1-enyl)-phenoxy]-ethoxy}-ethanol], for which, in the assay with IL-2 (setting [7]), the “IL-2 Expression” value is on record as “+++ (strong increase)”. The “IFN-γ Expression” value with IFN-γ [1] (setting [7]) is listed as “+++ (strong increase)”.
`N#Cc1ccc(C(c2ccc(C#N)cc2)n2cncn2)cc1` [letrozole, reference compound]: the “expression of surface markers, including CD8 and CD28, vs control” value in assay [2] (TRIP 100 mg/kg or letrozole 0.8 mg/kg daily oral 14 days) is on record as “no difference”. Moreover, in assay [2] (letrozole 0.8 mg/kg daily oral 14 days), the “CD4+ T cell population” value is reported as “lower”. Also, the “Tregs (FoxP3+/CD4+) compared to estradiol treatment” value in assay [3] was “significantly inhibited”. The “serum IFN-γ concentrations compared to estradiol” value in the assay on IFN-γ [4] is “significantly increased”.
As for `CC/C(=C(\c1ccccc1)c1ccc(OCCN(C)C)cc1)c1ccccc1` [tamoxifen, reference compound], the “expression of IFN-γ compared to control” value in the assay on IFN-γ [1] (Jurkat cells, single agent 2.5 μM, 24 hours (FIG. 2)) is on record as “no apparent effect”. Moreover, in the assay with IFN-γ [1] (Jurkat cells, tamoxifen 2.5 μM with TRIP 2.5 μM, 24 hours), the “effect on the T cell activating ability of TRIP (IFN-γ expression)” value is “does not affect”.

The record behind these values is patent publication US10154970B2, “Methods for immunomodulation of cancer and infectious disease therapy” (The Regents of the University of California, priority 2014, dated 2018).
